Values after ≈ are worked out from the molar mass of the structure shown.
Assays:
Assay type in all cases: functional
[1] = system: Escherichia coli; experiment: Antimicrobial activity against tolC deficient Escherichia coli KD65 by CLSI-based broth microdilution method
[2] = system: Pseudomonas aeruginosa; experiment: Antimicrobial activity against Pseudomonas aeruginosa PAO1 by CLSI-based broth microdilution method
[3] = system: Staphylococcus aureus; experiment: Antimicrobial activity against Staphylococcus aureus ATCC 29213 by CLSI-based broth microdilution method
[4] = system: Mycobacterium tuberculosis; experiment: Antimicrobial activity against Mycobacterium tuberculosis H37Rv ATCC 27294 incubated for 7 days by microplate Alamar blue assay; conditions: H37Rv ATCC 27294, 168 h
[5] = system: Enterococcus faecium; experiment: Antimicrobial activity against Enterococcus faecium ATCC 700221 incubated for 18 to 24 hrs by two-fold serial dilution method
[6] = system: Staphylococcus epidermidis; experiment: Antimicrobial activity against methicillin-susceptible Staphylococcus epidermidis ATCC 12228 incubated for 18 to 24 hrs by two-fold serial dilution method
[7] = system: Staphylococcus aureus; experiment: Antimicrobial activity against methicillin-resistant Staphylococcus aureus ATCC 33591 incubated for 18 to 24 hrs by two-fold serial dilution method
[8] = system: Staphylococcus aureus; experiment: Antimicrobial activity against methicillin-susceptible Staphylococcus aureus ATCC 29213 incubated for 18 to 24 hrs by two-fold serial dilution method
[9] = Escherichia coli, KD65, read-out: MIC
[10] = Staphylococcus aureus, ATCC 29213, read-out: MIC

Question: Which MIC [1, 9] does the source give for `N[C@@H]1C[C@@H]2CC=Cc3c(c(F)cc4c(=O)c(C(=O)O)cn(C5CC5)c34)N2C1` here?
Answer: 0.125 µg/mL (≈ 0.338 µM)

Question: And the MIC [2]?
Answer: 1 µg/mL (≈ 2.71 µM)

Question: What about the MIC [3, 10] of the same molecule?
Answer: 0.25 µg/mL (≈ 0.677 µM)

Question: For `CN1Cc2c(c(F)cc3c(=O)c(C(=O)O)cn(C4CC4)c23)N2CCCC2C1` (centres undefined), which MIC [1, 9] is on record?
Answer: 2 µg/mL (≈ 5.38 µM)

Question: What about the MIC [2] of the same molecule?
Answer: > 64 µg/mL

Question: And the MIC [3, 10]?
Answer: 32 µg/mL (≈ 86.2 µM)

Question: With `O=C(O)c1cn(C2CC2)c2c3c(c(F)cc2c1=O)N1CCCC1C(=O)NC3` (centres undefined) as the molecule, how does the MIC [1, 9] read?
Answer: 8 µg/mL (≈ 21.5 µM)

Question: What about the MIC [2] of the same molecule?
Answer: > 64 µg/mL

Question: And the MIC [3, 10]?
Answer: 16 µg/mL (≈ 43.1 µM)

Question: Which results are given for `COc1c(N2CCN(CCn3c([N+](=O)[O-])cnc3C)CC2)c(F)cc2c(=O)c(C(=O)O)cn(C3CC3)c12`?
Answer: MIC [4]: 1.72 µM (≈ 0.885 µg/mL); MIC [5]: > 128 µg/mL; MIC [6]: 1 µg/mL (≈ 1.94 µM); MIC [7]: 1 µg/mL (≈ 1.94 µM); MIC [8]: 1 µg/mL (≈ 1.94 µM)

Question: For `N[C@@H]1CCN2c3c(F)cc4c(=O)c(C(=O)O)cn(C5CC5)c4c3CCC[C@H]12`, which MIC [1, 9] is on record?
Answer: 0.004 µg/mL (≈ 0.0108 µM)

Question: And the MIC [2]?
Answer: 0.125 µg/mL (≈ 0.337 µM)

Question: And the MIC [3, 10]?
Answer: 0.03 µg/mL (≈ 0.0808 µM)

Question: What does the source list for `O=C(O)c1cn(C2CC2)c2c3c(c(F)cc2c1=O)N1CCCC1COC3` (centres undefined)?
Answer: MIC [1, 9]: 1 µg/mL (≈ 2.79 µM); MIC [2]: > 64 µg/mL; MIC [3, 10]: 0.5 µg/mL (≈ 1.4 µM)

Question: With `COc1ccc(C(=O)N/N=C(\C)CN2CCN(c3c(F)cc4c(=O)c(C(=O)O)cn(C5CC5)c4c3OC)CC2)cc1` as the molecule, how does the MIC [4] read?
Answer: 0.214 µM (≈ 0.121 µg/mL)

Question: What about the MIC [5] of the same molecule?
Answer: 64 µg/mL (≈ 113 µM)

Question: And the MIC [6]?
Answer: 0.125 µg/mL (≈ 0.221 µM)

Question: What about the MIC [7] of the same molecule?
Answer: 0.25 µg/mL (≈ 0.442 µM)

Question: And the MIC [8]?
Answer: 0.125 µg/mL (≈ 0.221 µM)

Question: For `N[C@H]1C[C@@H]2CCCc3c(c(F)cc4c(=O)c(C(=O)O)cn(C5CC5)c34)N2C1`, which MIC [1, 9] is on record?
Answer: 0.006 µg/mL (≈ 0.0162 µM)

Question: And the MIC [2]?
Answer: 0.45 µg/mL (≈ 1.21 µM)

Question: What about the MIC [3, 10] of the same molecule?
Answer: 0.038 µg/mL (≈ 0.102 µM)

Question: What does the source list for `O=C(O)c1cn(C2CC2)c2c3c(c(F)cc2c1=O)N1CCCC1C[S+]([O-])C3` (stereo in doubt; 441)?
Answer: MIC [1]: 1 µg/mL (≈ 2.56 µM); MIC [3]: 4 µg/mL (≈ 10.2 µM)

Question: `N[C@@H]1C[C@H]2COCc3c(c(F)cc4c(=O)c(C(=O)O)cn(C5CC5)c34)N2C1` was tested. Which MIC [1, 9] did it give?
Answer: 0.008 µg/mL (≈ 0.0214 µM)

Question: What about the MIC [2] of the same molecule?
Answer: 0.25 µg/mL (≈ 0.67 µM)

Question: And the MIC [3, 10]?
Answer: 0.015 µg/mL (≈ 0.0402 µM)

Question: How did the MIC [1, 9] turn out when `N[C@@H]1C[C@H]2CCCc3c(c(F)cc4c(=O)c(C(=O)O)cn(C5CC5)c34)N2C1` was run?
Answer: 8 µg/mL (≈ 21.5 µM)

Question: What about the MIC [2] of the same molecule?
Answer: 32 µg/mL (≈ 86.2 µM)

Question: And the MIC [3, 10]?
Answer: 8 µg/mL (≈ 21.5 µM)

Question: What does the source list for `N[C@@H]1CCN2c3c(F)cc4c(=O)c(C(=O)O)cn(C5CC5)c4c3C=NC[C@H]12`?
Answer: MIC [1, 9]: 0.125 µg/mL (≈ 0.337 µM); MIC [2]: 1 µg/mL (≈ 2.7 µM); MIC [3, 10]: 4 µg/mL (≈ 10.8 µM)

Question: `N[C@@H]1CCN2c3c(F)cc4c(=O)c(C(=O)O)cn(C5CC5)c4c3COC[C@H]12` was tested. Which MIC [1, 9] did it give?
Answer: 0.004 µg/mL (≈ 0.0107 µM)

Question: What about the MIC [2] of the same molecule?
Answer: 0.5 µg/mL (≈ 1.34 µM)

Question: And the MIC [3, 10]?
Answer: 2 µg/mL (≈ 5.36 µM)

Question: Which results are given for `N[C@H]1C[C@H]2COCc3c(c(F)cc4c(=O)c(C(=O)O)cn(C5CC5)c34)N2C1`?
Answer: MIC [1, 9]: 0.034 µg/mL (≈ 0.0911 µM); MIC [2]: 0.38 µg/mL (≈ 1.02 µM); MIC [3, 10]: 0.125 µg/mL (≈ 0.335 µM)

Question: What does the source list for `N[C@H]1CCN2c3c(F)cc4c(=O)c(C(=O)O)cn(C5CC5)c4c3CNC[C@H]12`?
Answer: MIC [1, 9]: ≤ 0.06 µg/mL; MIC [2]: 0.5 µg/mL (≈ 1.34 µM); MIC [3, 10]: 1 µg/mL (≈ 2.69 µM)

Question: Which results are given for `O=C(O)c1cn(C2CC2)c2c3c(c(F)cc2c1=O)N1CCCC1CS(=O)(=O)C3` (centres undefined)?
Answer: MIC [1, 9]: 0.25 µg/mL (≈ 0.615 µM); MIC [2]: > 64 µg/mL; MIC [3, 10]: 1 µg/mL (≈ 2.46 µM)

Question: Which MIC [1, 9] does the source give for `O=C(O)c1cn(C2CC2)c2c(cc(F)c3c2nnn3-c2ccc(F)cc2)c1=O` here?
Answer: 0.25 µg/mL (≈ 0.654 µM)

Question: And the MIC [2]?
Answer: 40 µg/mL (≈ 105 µM)

Question: And the MIC [3, 10]?
Answer: 0.06 µg/mL (≈ 0.157 µM)

Question: Which MIC [1, 9] does the source give for `N[C@@H]1CCN2c3c(F)cc4c(=O)c(C(=O)O)cn(C5CC5)c4c3CNC[C@H]12` here?
Answer: 0.25 µg/mL (≈ 0.671 µM)

Question: What about the MIC [2] of the same molecule?
Answer: 16 µg/mL (≈ 43 µM)

Question: And the MIC [3, 10]?
Answer: 1 µg/mL (≈ 2.69 µM)

Question: Which results are given for `O=C(O)c1cn(C2CC2)c2c3c(c(F)cc2c1=O)N1CCCC1C/C(=N\O)C3` (centres undefined)?
Answer: MIC [1, 9]: 0.03 µg/mL (≈ 0.0778 µM); MIC [2]: > 16 µg/mL; MIC [3, 10]: 0.125 µg/mL (≈ 0.324 µM)

Question: Which results are given for `O=C(O)c1cn(C2CC2)c2c3c(c(F)cc2c1=O)N1CCCC1CC(O)C3O` (centres undefined)?
Answer: MIC [1, 9]: < 0.06 µg/mL; MIC [2]: 8 µg/mL (≈ 20.6 µM); MIC [3, 10]: < 0.06 µg/mL

Question: How did the MIC [1, 9] turn out when `N[C@H]1C[C@H]2CC=Cc3c(c(F)cc4c(=O)c(C(=O)O)cn(C5CC5)c34)N2C1` was run?
Answer: 16 µg/mL (≈ 43.3 µM)

Question: What about the MIC [2] of the same molecule?
Answer: 64 µg/mL (≈ 173 µM)

Question: And the MIC [3, 10]?
Answer: 8 µg/mL (≈ 21.7 µM)

Question: How did the MIC [1, 9] turn out when `O=C1CC2CCCN2c2c(F)cc3c(=O)c(C(=O)O)cn(C4CC4)c3c2N1` (centres undefined) was run?
Answer: 4 µg/mL (≈ 10.8 µM)

Question: What about the MIC [2] of the same molecule?
Answer: > 64 µg/mL

Question: And the MIC [3, 10]?
Answer: > 64 µg/mL

Question: How did the MIC [1] turn out when `O=C(O)c1cn(C2CC2)c2c3c(c(F)cc2c1=O)N1CCCC1C[S+]([O-])C3` (stereo in doubt; 440) was run?
Answer: 16 µg/mL (≈ 41 µM)

Question: What about the MIC [2] of the same molecule?
Answer: > 16 µg/mL

Question: And the MIC [3]?
Answer: 1 µg/mL (≈ 2.56 µM)

Question: Which MIC [1, 9] does the source give for `O=C(O)c1cn(C2CC2)c2c3c(c(F)cc2c1=O)N1CCCC1CCO3` (centres undefined) here?
Answer: 0.008 µg/mL (≈ 0.0223 µM)

Question: What about the MIC [2] of the same molecule?
Answer: 21 µg/mL (≈ 58.6 µM)

Question: And the MIC [3, 10]?
Answer: 0.21 µg/mL (≈ 0.586 µM)

Question: Which MIC [1, 9] does the source give for `N[C@@H]1CCN2c3c(F)cc4c(=O)c(C(=O)O)cn(C5CC5)c4c3SC[C@H]12` here?
Answer: 0.03 µg/mL (≈ 0.0799 µM)

Question: And the MIC [2]?
Answer: 4 µg/mL (≈ 10.7 µM)

Question: And the MIC [3, 10]?
Answer: 0.125 µg/mL (≈ 0.333 µM)

Question: Which MIC [1, 9] does the source give for `N[C@@H]1CCN2c3c(F)cc4c(=O)c(C(=O)O)cn(C5CC5)c4c3/C=C\CC[C@H]12` here?
Answer: 0.25 µg/mL (≈ 0.652 µM)

Question: And the MIC [2]?
Answer: 32 µg/mL (≈ 83.5 µM)

Question: And the MIC [3, 10]?
Answer: 4 µg/mL (≈ 10.4 µM)

Question: What does the source list for `CO/N=C1/Cc2c(c(F)cc3c(=O)c(C(=O)O)cn(C4CC4)c23)N2CCCC2C1` (centres undefined)?
Answer: MIC [1, 9]: 0.25 µg/mL (≈ 0.626 µM); MIC [2]: 64 µg/mL (≈ 160 µM); MIC [3, 10]: 1 µg/mL (≈ 2.5 µM)
